Source: ChEMBL document CHEMBL3232733, “Design, synthesis, crystallographic studies, and preliminary biological appraisal of new substituted triazolo[4,3-b]pyridazin-8-amine derivatives as tankyrase inhibitors” (J Med Chem, 2014)
pIC50: −log10 of the molar value. Activity calls are given as the source filed them. No cut-off for these calls is given here.

Tests used:
[1] = biological target: Poly [ADP-ribose] polymerase 1 (Homo sapiens, UniProt P09874); experiment: Inhibition of recombinant human PARP-1
Chain of Poly [ADP-ribose] polymerase 1 (P09874 whole entry): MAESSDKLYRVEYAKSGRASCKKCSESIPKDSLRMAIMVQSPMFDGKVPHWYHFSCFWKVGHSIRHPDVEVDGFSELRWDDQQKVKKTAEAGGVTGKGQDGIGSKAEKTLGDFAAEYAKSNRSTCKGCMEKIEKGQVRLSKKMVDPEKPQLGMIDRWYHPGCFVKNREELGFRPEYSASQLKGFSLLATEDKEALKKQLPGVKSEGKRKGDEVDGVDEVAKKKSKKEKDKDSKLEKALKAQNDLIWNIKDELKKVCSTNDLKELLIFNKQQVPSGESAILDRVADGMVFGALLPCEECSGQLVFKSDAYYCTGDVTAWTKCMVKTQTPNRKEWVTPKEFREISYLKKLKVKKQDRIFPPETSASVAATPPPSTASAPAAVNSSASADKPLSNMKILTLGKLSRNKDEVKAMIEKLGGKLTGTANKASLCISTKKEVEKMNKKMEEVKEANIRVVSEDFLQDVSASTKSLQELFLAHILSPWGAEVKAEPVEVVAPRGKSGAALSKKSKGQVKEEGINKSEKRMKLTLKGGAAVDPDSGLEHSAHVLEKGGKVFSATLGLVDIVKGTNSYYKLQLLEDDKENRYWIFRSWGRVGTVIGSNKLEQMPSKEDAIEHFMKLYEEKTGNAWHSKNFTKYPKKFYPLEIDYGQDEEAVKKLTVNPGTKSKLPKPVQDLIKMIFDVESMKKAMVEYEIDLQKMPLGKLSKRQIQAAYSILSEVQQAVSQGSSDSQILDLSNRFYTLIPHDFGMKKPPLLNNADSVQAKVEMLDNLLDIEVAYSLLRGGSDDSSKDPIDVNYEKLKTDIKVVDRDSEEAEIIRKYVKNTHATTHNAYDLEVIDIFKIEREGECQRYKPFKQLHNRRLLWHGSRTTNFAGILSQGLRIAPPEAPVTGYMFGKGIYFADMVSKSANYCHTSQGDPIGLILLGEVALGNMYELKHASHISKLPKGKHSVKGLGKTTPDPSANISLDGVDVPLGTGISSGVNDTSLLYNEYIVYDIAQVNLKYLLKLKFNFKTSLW

[2] = biological target: T1, Protein mono-ADP-ribosyltransferase PARP8 (Homo sapiens) (UniProt Q8N3A8); settings: 10 uM
T1 sequence (whole entry): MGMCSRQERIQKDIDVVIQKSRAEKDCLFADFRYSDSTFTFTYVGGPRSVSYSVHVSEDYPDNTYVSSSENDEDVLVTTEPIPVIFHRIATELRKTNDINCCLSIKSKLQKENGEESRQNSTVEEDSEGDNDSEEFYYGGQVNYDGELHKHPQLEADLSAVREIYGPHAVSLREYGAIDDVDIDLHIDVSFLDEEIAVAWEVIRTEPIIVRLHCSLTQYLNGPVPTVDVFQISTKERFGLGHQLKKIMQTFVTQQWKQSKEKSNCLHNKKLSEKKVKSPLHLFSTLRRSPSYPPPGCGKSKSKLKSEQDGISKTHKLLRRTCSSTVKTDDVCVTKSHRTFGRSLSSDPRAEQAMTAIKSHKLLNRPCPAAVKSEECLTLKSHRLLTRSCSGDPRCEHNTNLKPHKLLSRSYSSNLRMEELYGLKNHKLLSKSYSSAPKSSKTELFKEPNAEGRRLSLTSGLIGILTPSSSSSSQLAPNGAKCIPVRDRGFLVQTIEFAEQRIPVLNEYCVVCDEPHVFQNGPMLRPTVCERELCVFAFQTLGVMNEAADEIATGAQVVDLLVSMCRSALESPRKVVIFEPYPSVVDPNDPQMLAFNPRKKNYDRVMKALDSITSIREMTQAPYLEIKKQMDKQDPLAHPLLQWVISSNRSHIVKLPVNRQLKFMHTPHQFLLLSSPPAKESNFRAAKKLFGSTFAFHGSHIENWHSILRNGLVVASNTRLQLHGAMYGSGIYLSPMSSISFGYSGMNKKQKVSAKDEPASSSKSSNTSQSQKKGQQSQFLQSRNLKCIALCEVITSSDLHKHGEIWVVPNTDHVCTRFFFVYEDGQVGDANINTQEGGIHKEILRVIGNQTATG
Description: Inhibition of recombinant human PARP-8 at 10 uM relative to control

[3] = biological target: T2, Protein mono-ADP-ribosyltransferase TIPARP (Homo sapiens) (UniProt Q7Z3E1); settings: 10 uM
T2 sequence (whole entry): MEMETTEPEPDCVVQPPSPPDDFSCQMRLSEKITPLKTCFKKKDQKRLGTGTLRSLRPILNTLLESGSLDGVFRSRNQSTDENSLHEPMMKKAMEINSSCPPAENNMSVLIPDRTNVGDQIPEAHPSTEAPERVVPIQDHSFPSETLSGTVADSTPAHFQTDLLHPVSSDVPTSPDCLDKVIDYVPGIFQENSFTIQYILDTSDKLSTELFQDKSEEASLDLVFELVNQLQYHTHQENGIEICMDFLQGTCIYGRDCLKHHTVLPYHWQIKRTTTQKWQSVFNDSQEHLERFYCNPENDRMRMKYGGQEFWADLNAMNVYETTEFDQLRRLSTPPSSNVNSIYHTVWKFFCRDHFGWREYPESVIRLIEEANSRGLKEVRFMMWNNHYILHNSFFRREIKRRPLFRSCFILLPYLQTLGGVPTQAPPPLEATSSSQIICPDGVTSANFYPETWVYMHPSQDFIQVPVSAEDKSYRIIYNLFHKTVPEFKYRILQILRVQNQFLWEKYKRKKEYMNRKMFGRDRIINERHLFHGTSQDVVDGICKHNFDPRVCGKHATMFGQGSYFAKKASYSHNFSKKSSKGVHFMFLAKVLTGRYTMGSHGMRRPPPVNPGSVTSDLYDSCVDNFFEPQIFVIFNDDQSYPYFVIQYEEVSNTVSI
Description: Inhibition of recombinant human PARP-7 at 10 uM relative to control

[4] = biological target: T3, Protein mono-ADP-ribosyltransferase PARP3 (Homo sapiens) (UniProt Q9Y6F1); settings: 10 uM
T3 sequence (whole entry): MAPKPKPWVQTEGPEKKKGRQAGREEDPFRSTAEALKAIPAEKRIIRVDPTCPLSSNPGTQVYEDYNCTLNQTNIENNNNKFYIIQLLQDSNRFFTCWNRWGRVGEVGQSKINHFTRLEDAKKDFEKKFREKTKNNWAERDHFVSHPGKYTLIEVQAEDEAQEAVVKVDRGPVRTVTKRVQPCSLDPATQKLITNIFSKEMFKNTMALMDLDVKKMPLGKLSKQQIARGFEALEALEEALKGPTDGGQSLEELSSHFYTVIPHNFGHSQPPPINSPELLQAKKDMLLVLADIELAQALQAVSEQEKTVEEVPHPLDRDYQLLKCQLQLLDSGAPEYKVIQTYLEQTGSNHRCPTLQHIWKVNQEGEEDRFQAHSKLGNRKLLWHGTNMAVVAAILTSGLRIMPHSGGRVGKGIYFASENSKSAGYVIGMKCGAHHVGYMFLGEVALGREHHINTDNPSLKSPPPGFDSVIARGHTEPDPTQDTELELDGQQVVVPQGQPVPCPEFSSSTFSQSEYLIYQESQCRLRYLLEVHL
Description: Inhibition of recombinant human PARP-3 at 10 uM relative to control

[5] = biological target: Poly [ADP-ribose] polymerase 2 (Homo sapiens, UniProt Q9UGN5); experiment: Inhibition of recombinant human PARP-2
Chain of Poly [ADP-ribose] polymerase 2 (Q9UGN5 whole entry): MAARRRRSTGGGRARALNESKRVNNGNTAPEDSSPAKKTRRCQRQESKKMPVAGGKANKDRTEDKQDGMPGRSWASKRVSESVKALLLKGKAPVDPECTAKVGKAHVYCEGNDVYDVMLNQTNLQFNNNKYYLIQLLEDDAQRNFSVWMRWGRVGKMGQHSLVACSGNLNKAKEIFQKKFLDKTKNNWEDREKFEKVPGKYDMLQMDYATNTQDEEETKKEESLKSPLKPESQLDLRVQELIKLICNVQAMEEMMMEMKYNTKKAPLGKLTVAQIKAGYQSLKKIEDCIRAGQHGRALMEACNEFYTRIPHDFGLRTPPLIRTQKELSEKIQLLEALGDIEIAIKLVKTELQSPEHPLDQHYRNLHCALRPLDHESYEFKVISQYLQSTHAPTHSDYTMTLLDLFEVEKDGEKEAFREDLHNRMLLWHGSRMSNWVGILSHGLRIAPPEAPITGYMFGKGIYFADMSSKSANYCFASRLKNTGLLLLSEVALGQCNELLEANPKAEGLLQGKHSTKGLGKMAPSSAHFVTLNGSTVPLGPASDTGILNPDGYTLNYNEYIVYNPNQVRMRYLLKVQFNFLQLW

DLD-1 = experiment: Cytotoxicity against human DLD1 cells assessed as growth inhibition at 1 to 20 uM measured on day 10 by crystal violet staining; type: functional, cell-based
[6] = biological target: Protein mono-ADP-ribosyltransferase PARP6 (Homo sapiens) (UniProt Q2NL67); settings: 10 uM
Chain of Protein mono-ADP-ribosyltransferase PARP6 (Homo sapiens) (Q2NL67 whole entry): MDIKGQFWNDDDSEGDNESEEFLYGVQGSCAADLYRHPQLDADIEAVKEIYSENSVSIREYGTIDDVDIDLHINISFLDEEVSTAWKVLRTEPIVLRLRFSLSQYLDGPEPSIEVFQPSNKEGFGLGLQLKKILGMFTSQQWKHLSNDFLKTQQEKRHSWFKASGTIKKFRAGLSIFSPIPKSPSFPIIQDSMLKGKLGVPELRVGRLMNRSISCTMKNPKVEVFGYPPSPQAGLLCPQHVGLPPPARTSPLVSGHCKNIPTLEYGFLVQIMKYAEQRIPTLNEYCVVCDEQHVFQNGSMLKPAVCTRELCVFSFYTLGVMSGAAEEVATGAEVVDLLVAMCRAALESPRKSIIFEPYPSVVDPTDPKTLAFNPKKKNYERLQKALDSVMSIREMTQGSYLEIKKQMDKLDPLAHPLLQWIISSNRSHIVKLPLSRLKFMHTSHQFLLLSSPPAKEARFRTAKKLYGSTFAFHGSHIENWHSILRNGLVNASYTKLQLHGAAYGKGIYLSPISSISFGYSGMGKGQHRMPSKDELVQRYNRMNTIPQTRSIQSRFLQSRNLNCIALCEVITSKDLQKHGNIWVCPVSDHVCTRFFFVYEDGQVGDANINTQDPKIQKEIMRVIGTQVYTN
Description: Inhibition of recombinant human PARP-6 at 10 uM relative to control

[7] = biological target: T4, Protein mono-ADP-ribosyltransferase PARP10 (Homo sapiens) (UniProt Q53GL7); settings: 10 uM
T4 sequence (whole entry): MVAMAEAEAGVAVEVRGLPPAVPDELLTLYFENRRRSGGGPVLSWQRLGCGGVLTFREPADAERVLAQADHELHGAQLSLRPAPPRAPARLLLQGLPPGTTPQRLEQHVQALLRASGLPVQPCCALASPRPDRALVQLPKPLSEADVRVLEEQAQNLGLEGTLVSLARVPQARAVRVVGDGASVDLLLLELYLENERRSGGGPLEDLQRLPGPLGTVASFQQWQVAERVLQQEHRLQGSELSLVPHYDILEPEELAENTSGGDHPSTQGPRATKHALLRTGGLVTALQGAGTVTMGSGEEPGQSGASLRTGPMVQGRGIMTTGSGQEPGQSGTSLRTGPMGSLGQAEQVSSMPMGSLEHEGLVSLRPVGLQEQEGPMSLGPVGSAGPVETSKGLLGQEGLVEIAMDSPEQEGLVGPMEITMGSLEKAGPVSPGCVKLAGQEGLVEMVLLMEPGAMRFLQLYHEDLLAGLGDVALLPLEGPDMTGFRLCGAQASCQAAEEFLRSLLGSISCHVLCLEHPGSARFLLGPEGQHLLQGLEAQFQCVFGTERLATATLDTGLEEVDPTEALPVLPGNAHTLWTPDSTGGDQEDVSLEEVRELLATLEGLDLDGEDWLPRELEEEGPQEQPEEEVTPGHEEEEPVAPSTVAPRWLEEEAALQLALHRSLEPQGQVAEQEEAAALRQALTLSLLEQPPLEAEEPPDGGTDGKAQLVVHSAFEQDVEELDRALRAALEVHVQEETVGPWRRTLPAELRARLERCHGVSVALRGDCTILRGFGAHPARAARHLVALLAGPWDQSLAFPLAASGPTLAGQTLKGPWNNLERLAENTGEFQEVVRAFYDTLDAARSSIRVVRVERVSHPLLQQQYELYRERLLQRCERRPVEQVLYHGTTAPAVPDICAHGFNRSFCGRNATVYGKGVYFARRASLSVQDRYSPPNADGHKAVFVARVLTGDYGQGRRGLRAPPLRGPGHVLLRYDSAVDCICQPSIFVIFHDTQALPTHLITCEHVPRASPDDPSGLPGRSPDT
Description: Inhibition of recombinant human PARP-10 at 10 uM relative to control

## Cc1cc(NCCc2ccc(O)cc2)c2nncn2n1
[1]
  pIC50: < 5.00
[2]
  inhibition: inactive
[3]
  inhibition: inactive
[4]
  inhibition: inactive
[5]
  pIC50: < 5.00
DLD-1
  growth inhibition (GI): Active
[6]
  inhibition: inactive
[7]
  inhibition: inactive

## Oc1nc(-c2ccc(C(F)(F)F)cc2)nc2c1CSCC2
DLD-1
  growth inhibition (GI): Active

## O=C(Nc1cccc2cccnc12)c1ccc(N2C(=O)[C@@H]3[C@H](C2=O)[C@@H]2C=C[C@H]3C2)cc1
DLD-1
  growth inhibition (GI): Active

## O=C(c1cc(Cc2n[nH]c(=O)c3ccccc23)ccc1F)N1CCN(C(=O)C2CC2)CC1
[7]
  inhibition: > 70%
